Source: patent publication US3944498A, “Germicidal detergent containing a thienyliodonium salt” (The Dow Chemical Company, priority 1973, dated 1976)
Like-named read-outs stand apart in the source and are kept apart here.

Columns and labels:
S. aureus [1] = experiment: Agar dilution MIC in absence of soap, S. aureus; type: cell-based; details: Staphylococcus aureus; read-out: Minimum growth inhibitory concentration, S. aureus
Description: (§1) The growth-inhibitory activity of the below-indicated compounds against some microorganisms most relevant to the human skin was determined by standard agar dilution techniques to provide the data given in following Table 1.
(§2) In Table 1, the first column gives the chemical structures of the test compounds, while the additional columns give the names of the test organisms and the minimum inhibitory concentration in parts per million (p.p.m.) of the compounds listed for 100% growth inhibition against the particular microorganisms indicated. […] For each p.p.m. of test compound, 50 p.p.m. of Ivory soap was also present in the culture medium for part A of Table 1, while in part B of Table 1, the culture medium was free of any additive other than the test compound. The data for compounds 13 through 16 of part B of Table 1 were taken from Cannon U.S. Pat. No. 3,207,660 while those for compounds 17 and 18 were taken from trade literature.

P. aeruginosa [2] = experiment: Agar dilution MIC in absence of soap, P. aeruginosa; type: cell-based; details: Pseudomonas aeruginosa; read-out: Minimum growth inhibitory concentration, P. aeruginosa
Description: as §1, §2

S. typhosa [3] = experiment: Agar dilution MIC in absence of soap, S. typhosa; type: cell-based; details: read-out: Minimum growth inhibitory concentration, S. typhosa
Description: as §1, §2

S. aureus [4] = details: absence of soap; 13-16 from Cannon U.S. Pat. No. 3,207,660, 17-18 from trade literature; cited from earlier work
P. aeruginosa [5] = details: absence of soap, 13-16 from Cannon U.S. Pat. No. 3,207,660, 17-18 from trade literature, cited from earlier work
S. typhosa [6] = details: absence of soap; 17-18 from trade literature; cited from earlier work
mice = details: 12-15 from U.S. Pat. No. 3,207,660, 17, 18 from trade literature, cited from earlier work

Structure (SMILES): COc1ccc([I+]c2cccc(C(F)(F)F)c2)cc1 [Compound 11 (Table 1)]
- MIC (S. aureus [1]): 10 µg/mL
- MIC (P. aeruginosa [2]): 500 µg/mL
- MIC (S. typhosa [3]): 100 µg/mL

Structure (SMILES): FC(F)(F)c1cccc([I+]c2cccs2)c1 [Compound 12 (Table 1)]
- MIC (S. aureus [1]): < 1 µg/mL
- MIC (P. aeruginosa [2]): 50 µg/mL
- MIC (S. typhosa [3]): 10 µg/mL

Structure (SMILES): Oc1cc(Cl)ccc1Oc1ccc(Cl)cc1Cl [Irgasan]
- Minimum growth inhibitory concentration, S. aureus (S. aureus [4]): 1 ppm
- Minimum growth inhibitory concentration, P. aeruginosa (P. aeruginosa [5]): more than 300 ppm
- Minimum growth inhibitory concentration, P. aeruginosa (P. aeruginosa [5]; listed as Compound 18 (Table 1)): > 300 ppm
- Minimum growth inhibitory concentration, S. typhosa (S. typhosa [6]): 1 ppm
- Oral LD50 (mice) (mice): 4,000 mg/kg
- Oral LD50 (mice) (mice; listed as Compound 17 (Table 2)): 4000 mg/kg
